Test results reported in patent publication US20210353579A1, “HIGH PENETRATION COMPOSITIONS AND USES THEREOF” (Techfields Pharma Co., Ltd., priority 2006, published 2021).

Legend:
[1] = test system: cats with ocular hypertension; assay: Intraocular pressure in cats with ocular hypertension; format: in vivo, cat
Description: The ability of diethylaminoethyl acetylsalicylate.HCl to reduce intraocular pressure (IOP) was evaluated in cats with ocular hypertension produced by previously done laser trabeculoplastry. IOP was determined with a pneumatonometer after light corneal anesthesia with dilute proparacaine. 14 Cats were divided into 2 groups. Baseline IOP was determined prior to treatment with the test compound aqueous solution. […] In group B, 30 mg/kg of diethylaminoethyl acetylsalicylate.HCl the area around eye (outside) of cat trice per day for 10 days.

Chinese white rabbits [2] = assay: Malassezia-induced lesions similar to psoriasis; format: in vivo, rabbit; conditions: 5% aqueous solution twice per day, 10 days after application
Excerpt: Heavy suspensions of Malassezia [Rosenberg, E. W., et al., Mycopathologia, 72, 147-154 (1980)] were applied to the shaved skin on the backs of the Chinese white rabbits (n=4×6) twice (at 7 am and 7 pm) per day for 2 weeks, lesions similar to psoriasis resulted.

[3] = test system: Human breast cancer cells (BCAP-37); assay: Human breast cancer xenograft in nude mice, topical; conditions: day 42; 30 μl of 5% (1.5 mg) topically every 8 hours from day 14; control 800 ± 100
Procedure, shortened: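 BCAP-37 tumour tissue (2-3 mm^3) was xenografted subcutaneously into the front leg of nude BALB mice, 7 per group. Compounds were applied topically as 30 μl of 5% solution (1.5 mg) in acetone or water.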

[4] = test system: Human colon cancer cells (LS174J); assay: Human colon cancer xenograft in nude mice, topical; conditions: day 30, about 30 μl of 5% solution (1.5 mg) topically applied
Excerpt: Human colon cancer cells (LS174J, 2-3 mm^3 of tumor tissue was used in each mouse) are subcutaneously xenografted into the front leg of nude mice (BALB).

mice (MRL/LPR) = assay: Anti-lupus erythematosus activity; format: in vivo, mouse; conditions: 30 mg/kg topically twice per day, after 6 weeks
[5] = test system: mice (SLAC:NOD-IDDM, type 1 diabetes); assay: Blood glucose in type 1 diabetes mice, transdermal; format: in vivo, mouse
Procedure, shortened: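 NOD-IDDM type 1 diabetic mice (n=7) received prodrug transdermally on shaved back skin (~1.5 cm²), at a dose equivalent to 30 mg/kg NSAIA, once daily for 7 weeks. Non-fasted blood glucose was measured every 3 days at 3 pm from week 4 to week 7.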

Chinese white rabbits [6] = assay: Autologous blood clot pulmonary embolization, thrombus propagation; format: in vivo, rabbit; conditions: 20 mg/kg topically, after 2 days
Description: Eighteen Chinese White rabbits weighing between 3.0 and 3.5 kg (aged 6-7 months) were selected and divided into three groups (control, P-1 and […] groups, n=6). One hour before the experiment, thrombi were made by aspirating venous blood (1 ml) into a sterilized bottle to clot. To avoid fragmentation and slow lysis, the autologous blood clots were stabilized in temperature-controlled (70° C.) distilled water for 10 min. After anesthesia, the femoral veins were exposed and distally isolated, and autologous blood clots (0.05 g/kg) were injected through an indwelling catheter (20 GA), which had been placed in the femoral vein isolated earlier. 50% acetone solution of diethylaminoethyl acetylsalicylate.acetylsalicylic acid salt (P-1, in acetone, 20 mg/kg) and diethylaminoethyl acetylsalicylsalicylate. acetylsalicylsalicylic acid salt (P-59, 20 mg/kg) were topically applied to the back of the rabbits. After 2 days, rabbits were euthanized with an excessive intravenous injection of sodium amobarbital (60 mg/kg). The lungs and hearts were isolated to observe whether thrombi were present in the pulmonary arteries. The lungs were immersed in 10% formalin for 24 h. Consecutive transverse sections along the obstructed pulmonary arteries were paraffin-embedded and stained with hematoxylin-eosine. […]

[7] = test system: rats (SLAC/GK, type 2 diabetes); assay: Blood glucose in type 2 diabetes rats, oral with food; format: in vivo, rat
Procedure, shortened: (§1)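 Compounds (dosed equivalent to 20 mg/kg of NSAIAs) mixed in food and given orally daily for 5 weeks to rats (n=7). Non-fasting blood glucose measured every 3 days at 3 pm from week 2 to week 5; blood lipids measured at end of week 5.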

[8] = test system: rats (SLAC/GK, type 2 diabetes); assay: Blood lipid in type 2 diabetes rats, transdermal; format: in vivo, rat
Procedure, shortened: (§2)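 GK type 2 diabetic rats (n=7) received the HPPs transdermally on a shaved ~1.5 cm^2 area of the back, at a dose equal to 20 mg/kg of NSAIAs, once daily for 5 weeks. Non-fasting blood glucose was measured every 3 days at 3 pm from week 2 to week 5, and blood lipids at the end of week 5.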

normal rats [9] = assay: Blood glucose in normal rats, oral with food; format: in vivo, rat
[10] = test system: rats (SLAC/GK, type 2 diabetes); assay: Blood glucose in type 2 diabetes rats, transdermal; format: in vivo, rat; conditions: diabetic rats (SLAC/GK)
Procedure, shortened: as §2

[11] = test system: rats (SLAC/GK, type 2 diabetes); assay: Blood lipid in type 2 diabetes rats, oral with food; format: in vivo, rat
Procedure, shortened: as §1

normal rats [12] = assay: Blood glucose in normal rats, transdermal; format: in vivo, rat
Procedure, shortened: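 Compounds equivalent to 20 mg/kg NSAIA were applied transdermally to a shaved ~1.5 cm^2 area of rat backs once daily at 8 am for 5 weeks (n=7). Non-fasting blood glucose was measured every 3 days at 3 pm from week 2 to week 5, and blood lipids at the end of week 5.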

Hypertension patients = assay: Anti-hypertension effect of transdermal atenolol in patients; format: in vivo, human; conditions: value after the slash, 100 mg atenolol HCl salt to the chest once per day
Description: 20 Hypertension patents were divided to 2 groups. Group A is control group (n=10, 1 ml of water was administrated to the chest of patients once per day) and group B is atenolol treated group (n=10, 100 mg of atenolol HCl salt was administrated to the chest of patients once per day) (Table 32).

[13] = 1 hour after 50 mg/kg on the back of sheep, 10% aqueous solution
[14] = baseline, equal to 20 mg/kg of NSAIAs
[15] = end of the fifth week, equal to 20 mg/kg of NSAIAs once per day
[16] = end of the fifth week, equal to 20 mg/kg of NSAIAs every day

CCN(CC)CCOC(=O)c1ccccc1OC(C)=O.Cl [Diethylaminoethyl acetylsalicylate.HCl, diethylaminoethyl acetylsalicylate.HCl]
anti-glaucoma activity ([1]; 30 mg/kg around the eye, 10 days): very strong anti-glaucoma activity

CC(=O)O.CC(C)Cc1ccc(C(C)C(=O)OCC2CCCNC2)cc1 (stereo not shown) [P-5, 3-piperidinemethyl 2-(ρ-isobutylphenyl) propionate.AcOH]
lesions similar to psoriasis (Chinese white rabbits [2]): the lesions were resolved | Tumor size [3]: 190 ± 50 mm^3 | Tumor size [4]: 390 ± 110 mm^3 | skin lesions and lupus nephritis (mice (MRL/LPR)): all skin lesions and lupus nephritis were resolved

CC(=O)Oc1ccccc1C(=O)Oc1ccccc1C(=O)O.CCN(CC)CCOC(=O)c1ccccc1OC(=O)c1ccccc1OC(C)=O [P-59, diethylaminoethyl acetylsalicylsalicylate.acetylsalicylsalicylic acid salt]
Blood glucose, Average ([5]; average fourth to seventh week, no fasting, equal to 30 mg/kg of NSAIAs once per day for 7 weeks): 8.7 ± 1 mmol/L | Blood glucose, Baseline ([5]; baseline, equal to 30 mg/kg of NSAIAs): 24.3 ± 3 mmol/L | lung tissue and vascular walls (thrombus propagation) (Chinese white rabbits [6]): both lung tissue and vascular walls were normal | Blood glucose, Diabetic rats, Average ([7]; average second to fifth week, no fasting, equal to 20 mg/kg of NSAIAs every day for 5 weeks): 8.6 ± 1 mmol/L | Blood glucose, Diabetic rats, Baseline [7, 14]: 15.3 ± 3 mmol/L | Cholesterol (HDL), Baseline [8, 14]: 1.6 ± 0.2 mmol/L | Cholesterol (total), Baseline [8, 14]: 7.6 ± 0.6 mmol/L | Triglycerides, Baseline [8, 14]: 5.6 ± 0.5 mmol/L | Cholesterol (HDL), Average [8, 15]: 1.6 ± 0.2 mmol/L | Cholesterol (total), Average [8, 15]: 5.1 ± 0.3 mmol/L | Triglycerides, Average [8, 15]: 1.9 ± 0.2 mmol/L | Blood glucose, Normal rats, Average (normal rats [9]; average second to fifth week, equal to 20 mg/kg of NSAIAs every day): 7.3 ± 1 mmol/L | Blood glucose, Normal rats, Baseline (normal rats [9]; [14]): 7.5 ± 1 mmol/L | Blood glucose, Average ([10]; average second to fifth week, no fasting, equal to 20 mg/kg of NSAIAs once per day for 5 weeks): 8.7 ± 1 mmol/L | Blood glucose, Baseline ([10]; baseline, equal to 20 mg/kg of NSAIAs once per day): 16.3 ± 3 mmol/L | Cholesterol (HDL), Baseline [11, 14]: 1.9 ± 0.2 mmol/L | Cholesterol (total), Baseline [11, 14]: 7.7 ± 0.6 mmol/L | Triglycerides, Baseline [11, 14]: 5.4 ± 0.6 mmol/L | Cholesterol (HDL), Average [11, 16]: 1.8 ± 0.2 mmol/L | Cholesterol (total), Average [11, 16]: 5.7 ± 0.3 mmol/L | Triglycerides, Average [11, 16]: 2.7 ± 0.2 mmol/L | Blood glucose, Average (normal rats [12]; normal rats (second Average line of Table 24), average second to fifth week, equal to 20 mg/kg of NSAIAs once per day): 7.3 ± 1 mmol/L | Blood glucose, Baseline (normal rats [12]; normal rats (second Baseline line of Table 24), baseline, equal to 20 mg/kg of NSAIAs): 7.2 ± 1 mmol/L

CC(C)NCC(O)COc1ccc(CC(N)=O)cc1 (stereo not shown) [atenolol]
Blood pressure (2 weeks after treatment), second value (Hypertension patients; 2 weeks after treatment): 113 ± 23 mmHg | Blood Pressure (before treatment), second value (Hypertension patients; before treatment): 110 ± 20 mmHg

CCN(CC)CCOC(=O)C(C)c1ccc(CC(C)C)cc1.O=C(O)CC(O)(CC(=O)O)C(=O)O (stereo not shown) [diethylaminoethyl 2-(ρ-isobutylphenyl)propionate. citric acid salt]
ibuprofen found in the milk [13]: 55 ± 8 µg/mL | ibuprofenamine found in the milk [13]: 10 ± 5 µg/mL

CCN(CC)CCOC(=O)c1ccccc1OC(C)=O.Cl [diethylaminoethyl acetylsalicylate•HCl]
Intraocular pressure, Base-line ([1]; base-line, prior to treatment, group B, 30 mg/kg around the eye): 24.1 ± 0.7 | Intraocular pressure, End of treatment (day10) ([1]; day 10, group B, 30 mg/kg applied to the area around the eye for 10 days): 16.1 ± 0.5
